# In paper PMC3485666 (British Journal of Pharmacology, 2012):
# Key:
# human S1P2 receptors = human S1P2 receptors (Homo sapiens, UniProt O95136); assay: GTPγ[35S] binding assay, human S1P2; type: biochemical
# [1] = test system: experimental autoimmune encephalomyelitis (EAE); assay: Chronic EAE in DA rats, therapeutic dosing; type: in vivo; details: DA rat, days 11–34
# human S1P1 receptors = human S1P1 receptors (Homo sapiens, UniProt P21453); assay: GTPγ[35S] binding assay, human S1P1; type: biochemical
# healthy subjects = assay: Phase I multiple-dose study: safety and tolerability; type: in vivo, human
# [2] = test system: peripheral absolute lymphocyte count (ALC); assay: Phase I multiple-dose study: absolute lymphocyte count; type: in vivo, human; details: for Difference in mean %Emax of ALC, BAF312 versus placebo: 28 days, ANCOVA; for Average time to reach the lower limit of the normal ALC range after stopping dosing at steady state: predicted by pharmacokinetic/pharmacodynamic model
# human S1P4 receptors = target: T1, human S1P4 receptors (Homo sapiens, UniProt O95977); assay: GTPγ[35S] binding assay, human S1P4; type: biochemical; details: read-out: %Emax (percentage of maximum stimulation)
# T1 sequence (O95977 1-384): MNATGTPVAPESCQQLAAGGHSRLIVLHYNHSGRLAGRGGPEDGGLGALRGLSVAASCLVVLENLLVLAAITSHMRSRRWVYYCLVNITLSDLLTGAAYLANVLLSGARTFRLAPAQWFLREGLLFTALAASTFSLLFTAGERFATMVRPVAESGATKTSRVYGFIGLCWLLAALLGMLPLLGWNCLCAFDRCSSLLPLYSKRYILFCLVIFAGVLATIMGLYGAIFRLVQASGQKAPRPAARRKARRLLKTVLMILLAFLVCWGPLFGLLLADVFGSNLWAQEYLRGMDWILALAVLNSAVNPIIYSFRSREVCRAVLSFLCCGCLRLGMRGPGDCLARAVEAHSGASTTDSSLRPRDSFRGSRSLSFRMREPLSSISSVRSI
# clinical = details: both, human, in vivo, Complete wash-out (five effective half-lives) after treatment discontinuation
# [3] = Phase I multiple-dose study: plasma pharmacokinetics; details: for AUCτ / concentration at 28 day / half-life at 28 day: geometric mean [%CV]; for Cmax at 28 day / Tmax / Tmax at 28 day / concentration at 28 day / half-life at 28 day / Cmax / half-life: both, human, plasma, oral; for half-life at 28 day: based on drug accumulation at steady-state
# heart rate = assay: Phase I multiple-dose study: heart rate (Holter monitoring); type: in vivo, human; details: for Decrease in mean heart rate Emax0-24 versus placebo: day 1; for Mean heart rate reduction from time-matched day −1: 2 h post dose of day 1
# [4] = test system: leukocyte subsets in whole blood; assay: Phase I multiple-dose study: leukocyte subsets by flow cytometry; type: in vivo, human; details: 10 mg
# human S1P3 receptors = human S1P3 receptors (Homo sapiens, UniProt Q99500); assay: GTPγ[35S] binding assay, human S1P3; type: biochemical
# [5] = target: myc-tagged human S1P1 receptors (Homo sapiens, UniProt P21453); assay: Agonist-mediated internalization of S1P1 receptors in CHO cells by flow cytometry; type: cell-based; details: for Internalization of S1P1 receptors: 1 h incubation
# human S1P5 receptors = human S1P5 receptors (Homo sapiens, UniProt Q9H228); assay: GTPγ[35S] binding assay, human S1P5; type: biochemical; details: read-out: %Emax (percentage of maximum stimulation), S1P5
# Sequence of human S1P5 receptors (Q9H228 whole entry): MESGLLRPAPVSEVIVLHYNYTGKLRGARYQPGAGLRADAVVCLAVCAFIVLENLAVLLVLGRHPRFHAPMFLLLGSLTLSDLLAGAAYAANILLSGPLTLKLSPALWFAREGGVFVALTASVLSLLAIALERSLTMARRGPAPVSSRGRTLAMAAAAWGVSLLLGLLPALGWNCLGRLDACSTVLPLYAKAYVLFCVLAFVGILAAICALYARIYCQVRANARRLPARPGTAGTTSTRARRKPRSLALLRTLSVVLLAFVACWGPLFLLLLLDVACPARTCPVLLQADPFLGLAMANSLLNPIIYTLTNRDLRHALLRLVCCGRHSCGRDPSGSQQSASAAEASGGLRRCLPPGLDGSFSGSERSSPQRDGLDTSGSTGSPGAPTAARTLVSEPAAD
# Sequence of myc-tagged human S1P1 receptors (P21453 whole entry): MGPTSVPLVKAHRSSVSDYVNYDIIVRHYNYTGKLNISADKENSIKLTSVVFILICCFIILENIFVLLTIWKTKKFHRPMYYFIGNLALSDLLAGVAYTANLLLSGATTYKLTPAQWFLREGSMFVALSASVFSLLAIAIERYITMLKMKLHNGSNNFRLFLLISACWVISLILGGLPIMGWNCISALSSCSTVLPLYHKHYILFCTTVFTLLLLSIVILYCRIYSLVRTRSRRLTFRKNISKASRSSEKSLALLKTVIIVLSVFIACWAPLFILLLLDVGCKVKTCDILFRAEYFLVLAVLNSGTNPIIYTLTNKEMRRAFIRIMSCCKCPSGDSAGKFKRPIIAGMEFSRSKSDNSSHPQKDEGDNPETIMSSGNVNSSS
# Sequence of human S1P1 receptors (P21453 whole entry): as above
# Sequence of human S1P2 receptors (O95136 whole entry): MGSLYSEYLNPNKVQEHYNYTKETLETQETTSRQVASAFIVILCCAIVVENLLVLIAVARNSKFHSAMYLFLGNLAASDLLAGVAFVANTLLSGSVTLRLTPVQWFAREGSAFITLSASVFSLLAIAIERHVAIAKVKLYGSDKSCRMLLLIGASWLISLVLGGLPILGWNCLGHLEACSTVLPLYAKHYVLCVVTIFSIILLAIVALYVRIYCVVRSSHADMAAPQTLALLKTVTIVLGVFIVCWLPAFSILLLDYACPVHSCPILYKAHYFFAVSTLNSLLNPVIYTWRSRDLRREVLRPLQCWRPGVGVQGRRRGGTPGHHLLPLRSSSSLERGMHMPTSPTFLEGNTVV
# Sequence of human S1P3 receptors (Q99500 whole entry): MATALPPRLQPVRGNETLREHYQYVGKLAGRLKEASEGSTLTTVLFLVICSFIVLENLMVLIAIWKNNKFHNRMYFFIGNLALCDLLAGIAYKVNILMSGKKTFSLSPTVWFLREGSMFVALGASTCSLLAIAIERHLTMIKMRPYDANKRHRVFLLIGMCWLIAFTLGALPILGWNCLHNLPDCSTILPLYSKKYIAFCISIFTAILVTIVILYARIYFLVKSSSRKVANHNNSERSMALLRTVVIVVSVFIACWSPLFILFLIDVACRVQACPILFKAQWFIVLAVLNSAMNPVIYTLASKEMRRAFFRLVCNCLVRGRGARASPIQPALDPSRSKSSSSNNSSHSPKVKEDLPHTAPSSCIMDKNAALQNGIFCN
smiles,measurement,setting,value
"CCc1cc(/C(C)=N/OCc2ccc(C3CCCCC3)c(C(F)(F)F)c2)ccc1CN1CC(C(=O)O)C1 [BAF312, 1-(4-{1-[(E)-4-cyclohexyl-3-trifluoromethylbenzyloxyimino]-ethyl}-2-ethylbenzyl)-azetidine-3-carboxylic acid]",EC50,human S1P2 receptors,> 10000 nM
same,Disease scores (AUC from days 12 to 34) versus vehicle,[1]; 0.03 mg·kg^−1 oral once daily,borderline effect
same,Disease scores (AUC from days 12 to 34) versus vehicle,[1]; 0.3 mg·kg^−1 oral once daily,significant reduction
same,Disease scores (AUC from days 12 to 34) versus vehicle,[1]; 3 mg·kg^−1 oral once daily,significant reduction
same,EC50,human S1P1 receptors,0.39 ± 0.07 nM
same,Subjects experiencing AEs,healthy subjects; 0.3 mg dose group,three
same,Subjects experiencing AEs,healthy subjects; 1 mg dose group,three
same,Subjects experiencing AEs,healthy subjects; 2.5 mg dose group,four
same,Subjects experiencing AEs,healthy subjects; 10 mg dose group,six
same,Subjects experiencing AEs,healthy subjects; 20 mg dose group,six
same,Macular oedema by ocular coherence tomography,"healthy subjects; 0.3–20 mg once daily, 28 days",no signs of macular oedema
same,Tolerability,"healthy subjects; 0.3–20 mg once daily, 28 days, healthy subjects",well tolerated
same,Elevations in alanine aminotransferase level,healthy subjects; by dose group,occurred most frequently in subjects in the BAF312 20 mg dose group
same,Pulmonary function tests versus placebo,healthy subjects; not related to dose and day (data not shown),"mild to moderate, statistically significant decreases"
same,Visual acuity scores over treatment days,healthy subjects; regardless of the dose,no notable changes
same,Serious AEs,healthy subjects; whole trial,no serious AEs
same,"Difference in mean %Emax of ALC, BAF312 versus placebo","[2]; 0.3 mg once daily, 90% CI in parentheses",32.8%
same,"Difference in mean %Emax of ALC, BAF312 versus placebo",[2]; 1 mg once daily,61.6%
same,Average time to reach the lower limit of the normal ALC range after stopping dosing at steady state,[2]; 1 mg,approximately 24 h
same,"Difference in mean %Emax of ALC, BAF312 versus placebo",[2]; 2.5 mg once daily,56.7%
same,"Difference in mean %Emax of ALC, BAF312 versus placebo",[2]; 10 mg once daily,74.6%
same,Average time to reach the lower limit of the normal ALC range after stopping dosing at steady state,[2]; 10 mg,~123 h
same,"Difference in mean %Emax of ALC, BAF312 versus placebo",[2]; 20 mg once daily,76.1%
same,Time of maximal ALC reduction post dose,"[2]; day 1, healthy subjects",4 to 6 h
same,Study day by which ALC returned to the normal range,"[2]; treatment stopped on day 28, dose groups 0.3–10 mg",≤ 35 days
same,Emax,human S1P4 receptors,90 ± 9%
same,half-life,clinical,151 h
same,AUC0–24 h,"[3]; Day 1, 0.3 mg·day^−1",36.2 [10] h^*ng·mL^−1
same,AUC0–24 h,"[3]; Day 1, 1 mg·day^−1",136 [8] h^*ng·mL^−1
same,AUC0–24 h,"[3]; Day 1, 2.5 mg·day^−1",293 [85] h^*ng·mL^−1
same,AUC0–24 h,"[3]; Day 1, 10 mg·day^−1",1370 [11] h^*ng·mL^−1
same,AUC0–24 h,"[3]; Day 1, 20 mg·day^−1",2740 [14] h^*ng·mL^−1
same,AUCτ,"[3]; Day 28, 0.3 mg·day^−1",97.9 [19] h^*ng·mL^−1
same,AUCτ,"[3]; Day 28, 1 mg·day^−1",282 [16] h^*ng·mL^−1
same,AUCτ,"[3]; Day 28, 2.5 mg·day^−1",692 [45] h^*ng·mL^−1
same,AUCτ,"[3]; Day 28, 10 mg·day^−1",2580 [24] h^*ng·mL^−1
same,"Cmin,ss","[3]; Day 28, 20 mg·day^−1, arithmetic mean (SD)",166 (88.0) ^D ng·mL^−1
same,AUCτ,"[3]; Day 28, 20 mg·day^−1",6370 [23] h^*ng·mL^−1
same,Cmax at 28 day,[3]; 0.3 mg·day^−1,5.31 ng/mL
same,Tmax,[3]; 0.3 mg·day^−1,3 h
same,Tmax at 28 day,[3]; 0.3 mg·day^−1,3.5 h
same,concentration at 28 day,"[3]; 0.3 mg·day^−1, Cavg, ss, Day 28, 0.3 mg·day^−1",4.08 ng/mL
same,concentration at 28 day,"[3]; 0.3 mg·day^−1, Cmin,ss, Day 28, 0.3 mg·day^−1",2.83 ng/mL
same,half-life at 28 day,"[3]; 0.3 mg·day^−1, Effective T1/2, Day 28, 0.3 mg·day^−1",36.2 h
same,Cmax,[3]; 1 mg·day^−1,8.01 ng/mL
same,Cmax at 28 day,[3]; 1 mg·day^−1,14.9 ng/mL
same,Tmax,[3]; 1 mg·day^−1,4.5 h
same,Tmax at 28 day,[3]; 1 mg·day^−1,3 h
same,concentration at 28 day,"[3]; 1 mg·day^−1, Cavg, ss, Day 28, 1 mg·day^−1",11.7 ng/mL
same,concentration at 28 day,"[3]; 1 mg·day^−1, Cmin,ss, Day 28, 1 mg·day^−1",7.74 ng/mL
same,half-life at 28 day,"[3]; 1 mg·day^−1, Effective T1/2, Day 28, 1 mg·day^−1",25.2 h
same,Cmax,[3]; 2.5 mg·day^−1,17.4 ng/mL
same,Cmax at 28 day,[3]; 2.5 mg·day^−1,38.3 ng/mL
same,Tmax,[3]; 2.5 mg·day^−1,3 h
same,Tmax at 28 day,[3]; 2.5 mg·day^−1,4 h
same,concentration at 28 day,"[3]; 2.5 mg·day^−1, Cavg, ss, Day 28, 2.5 mg·day^−1",28.8 ng/mL
same,concentration at 28 day,"[3]; 2.5 mg·day^−1, Cmin,ss, Day 28, 2.5 mg·day^−1",15.2 ng/mL
same,Cmax,[3]; 10 mg·day^−1,84.1 ng/mL
same,Cmax at 28 day,[3]; 10 mg·day^−1,147 ng/mL
same,Tmax,[3]; 10 mg·day^−1,3 h
same,Tmax at 28 day,[3]; 10 mg·day^−1,3 h
same,concentration at 28 day,"[3]; 10 mg·day^−1, Cavg, ss, Day 28, 10 mg·day^−1",107 ng/mL
same,concentration at 28 day,"[3]; 10 mg·day^−1, Cmin,ss, Day 28, 10 mg·day^−1",70.6 ng/mL
same,half-life at 28 day,"[3]; 10 mg·day^−1, Effective T1/2, Day 28, 10 mg·day^−1",21.9 h
same,Cmax,[3]; 20 mg·day^−1,162 ng/mL
same,Cmax at 28 day,[3]; 20 mg·day^−1,359 ng/mL
same,Tmax,[3]; 20 mg·day^−1,4 h
same,Tmax at 28 day,[3]; 20 mg·day^−1,3 h
same,concentration at 28 day,"[3]; 20 mg·day^−1, Cavg, ss, Day 28, 20 mg·day^−1",265 ng/mL
same,half-life at 28 day,"[3]; 20 mg·day^−1, Effective T1/2, Day 28, 20 mg·day^−1",28.8 h
same,half-life,"[3]; Effective elimination half-life based on drug accumulation at steady state, range over dose groups",22 to 38 h
same,half-life,"[3]; Effective elimination half-life, mean, mean over dose groups",30 h
same,Dose proportionality of pharmacokinetics,[3]; dose range of 0.3 to 20 mg,increase proportionally with the dose
same,Time to steady-state concentrations,[3]; multiple once-daily administration,approximately 6 days
same,Decrease in mean heart rate Emax0-24 versus placebo,"heart rate; 0.3 mg, 90% CI in brackets, not significant",−0.92 bpm
same,Decrease in mean heart rate Emax0-24 versus placebo,heart rate; 1 mg,−6.41 bpm
same,Decrease in mean heart rate Emax0-24 versus placebo,heart rate; 2.5 mg,−5.44 bpm
same,Mean heart rate reduction from time-matched day −1,heart rate; 10 mg,approximately 24 ± 6 bpm
same,Decrease in mean heart rate Emax0-24 versus placebo,heart rate; 10 mg,−13.88 bpm
same,Mean heart rate reduction from time-matched day −1,heart rate; 20 mg,~29 ± 10 bpm
same,Subjects with asymptomatic second degree atrioventricular (AV) block,"heart rate; active groups, each on day 1",three
same,Time of maximum decrease in mean ventricular heart rate post dose,"heart rate; day 1, all (0.3–20 mg) doses",~2 h
same,Effect on B and T cell counts,[4]; baseline to end of treatment,strong reduction in cell counts
same,Effect on monocyte counts,[4]; baseline to end of treatment,Little or no effect
same,Leukocyte subset cell counts after discontinuation,[4]; three weeks after discontinuation (data not shown),returned to baseline levels
same,EC50,human S1P3 receptors,> 1000 nM
same,Internalization of S1P1 receptors,"[5]; 10 nM, 2 experiments",86 ± 4%
same,Internalization of S1P1 receptors,"[5]; 100 nM, 2 experiments",99 ± 3%
same,S1P1 receptors localized intracellularly,"[5]; 1 µM, 1 h incubation followed by 3 h without compound, mean ± SD",87 ± 0.5%
same,Internalization of S1P1 receptors,"[5]; 1 µM, mean ± SD",91 ± 4%
same,Surface expression of S1P1 receptors,[5]; incubated for up to 12 h without compound (data not shown),remained low
same,Emax,human S1P5 receptors,~100%
